{
  "source": "patent US20060078974A1",
  "about": "“Novel purified hydroxymethylglutaryl-CoA reductases and structures thereof” (Affinium Pharmaceuticals, Inc., priority 2004, published 2006)",
  "origin": "cited, not measured here",
  "target": "S. aureus HMGR",
  "details": "inhibition of S. aureus HMGR; reported value",
  "data": [
    {"molecule": "CC(C)n1c(/C=C/[C@@H](O)C[C@@H](O)CC(=O)O)c(-c2ccc(F)cc2)c2ccccc21", "note": "(racemic) [Fluvastatin]", "values": [
      {"measurement": "Ki", "value": "~320", "unit": "µM"}
    ]}
  ]
}
